The experiment concerns the target ROCK2 (Homo sapiens, UniProt O75116). The experiment can be described thus: ROCK assay: phosphorylation of FITC peptide substrate, LABCHIP 3000 mobility shift. Conditions: 5 μM ATP, 1.5 μM peptide substrate; read-out: ROCK2 Activity (ROCK IC50 range). In kind it is biochemical. As for the experimental part: The effectiveness of compounds of the present invention as ROCK inhibitors can be determined in a 30 μL assay containing 20 mM HEPES, pH 7.5, 20 mM MgCl2, 0.015% Brij-35, 4 mM DTT, 5 μM ATP and 1.5 μM peptide substrate (FITC-AHA-AKRRRLSSLRA-OH). Compounds were dissolved in DMSO so that the final concentration of DMSO was <2%, and the reaction was initiated with Rho kinase variants. After incubation, the reaction was terminated by the addition of EDTA and the phosphorylated and non-phosphorylated peptides separated using a LABCHIP® 3000 Reader (Caliper Life Sciences). […] Compounds were tested in dose-response format, and the inhibition of kinase activity was calculated at each concentration of compound. The inhibition data were fit using a curve-fitting program to determine the IC50; i.e., the concentration of compound required to inhibit 50% of kinase activity.
Representative Examples were tested in the ROCK assay described above and found having ROCK inhibitory activity.

The values below come from US9902702B2, “Spirocycloheptanes as inhibitors of rock” (BRISTOL-MYERS SQUIBB COMPANY, priority 2014, dated 2018).

What is called IC50 is the concentration that gives 50% inhibition.

Molecules are shown by their SMILES.

Chain of ROCK2 (O75116 whole entry, species assumed): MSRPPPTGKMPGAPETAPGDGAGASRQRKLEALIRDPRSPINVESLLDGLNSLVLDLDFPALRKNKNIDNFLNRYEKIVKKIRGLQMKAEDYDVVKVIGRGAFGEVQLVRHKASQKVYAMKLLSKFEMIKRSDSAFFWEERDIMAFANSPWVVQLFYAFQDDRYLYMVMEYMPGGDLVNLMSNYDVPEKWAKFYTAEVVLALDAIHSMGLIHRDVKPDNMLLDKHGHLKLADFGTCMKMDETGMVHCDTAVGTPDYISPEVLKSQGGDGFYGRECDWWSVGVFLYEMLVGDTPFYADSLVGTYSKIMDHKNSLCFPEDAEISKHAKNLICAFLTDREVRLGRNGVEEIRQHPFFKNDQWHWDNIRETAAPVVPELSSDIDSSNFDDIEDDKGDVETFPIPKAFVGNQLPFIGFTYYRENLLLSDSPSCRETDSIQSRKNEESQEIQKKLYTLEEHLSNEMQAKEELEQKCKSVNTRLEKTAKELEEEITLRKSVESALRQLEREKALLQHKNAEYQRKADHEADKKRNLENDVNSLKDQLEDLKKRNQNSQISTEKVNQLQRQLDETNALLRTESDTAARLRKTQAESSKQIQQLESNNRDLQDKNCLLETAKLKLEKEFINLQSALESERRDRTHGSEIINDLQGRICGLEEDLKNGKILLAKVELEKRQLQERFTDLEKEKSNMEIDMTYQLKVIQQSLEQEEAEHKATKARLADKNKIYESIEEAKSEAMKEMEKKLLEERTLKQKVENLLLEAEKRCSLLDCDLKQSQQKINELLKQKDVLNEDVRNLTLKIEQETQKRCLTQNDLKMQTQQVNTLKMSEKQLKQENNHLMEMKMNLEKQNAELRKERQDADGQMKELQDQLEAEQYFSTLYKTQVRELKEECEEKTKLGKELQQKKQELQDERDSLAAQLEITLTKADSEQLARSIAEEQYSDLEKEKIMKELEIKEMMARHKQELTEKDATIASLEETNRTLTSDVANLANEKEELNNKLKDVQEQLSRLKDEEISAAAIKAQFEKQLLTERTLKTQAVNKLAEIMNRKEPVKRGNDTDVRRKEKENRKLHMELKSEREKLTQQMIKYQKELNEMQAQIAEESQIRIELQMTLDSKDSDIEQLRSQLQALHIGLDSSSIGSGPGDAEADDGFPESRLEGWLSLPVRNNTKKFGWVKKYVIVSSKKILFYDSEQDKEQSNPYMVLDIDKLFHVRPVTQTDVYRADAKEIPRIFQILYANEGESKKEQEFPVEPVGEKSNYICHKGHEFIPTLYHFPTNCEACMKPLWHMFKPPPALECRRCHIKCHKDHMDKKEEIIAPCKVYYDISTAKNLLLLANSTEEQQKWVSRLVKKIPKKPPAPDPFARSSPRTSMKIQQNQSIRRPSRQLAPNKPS

On to `Cc1nn(CC(F)F)cc1C(=O)NC1CC2(C1)CC(c1n[nH]c(=O)c3ccccc13)C2` [Example 32, 1-(2,2-difluoroethyl)-3-methyl-N-[(aR)-6-(4-oxo-3,4-dihydrophthalazin-1-yl)spiro[3.3]heptan-2-yl]-1H-pyrazole-4-carboxamide], for which the concentration for half-maximal inhibition (IC50) lay within 2.01 to 5 nM.
The value for `O=C(NC1CC2(C1)CC(c1n[nH]c(=O)c3ccccc13)C2)c1cnn(-c2ccccc2)c1` (centres unmarked) [Example 12, N-[6-(4-oxo-3,4-dihydrophthalazin-1-yl)spiro[3.3]heptan-2-yl]-1-phenyl-1H-pyrazole-4-carboxamide] was 15.1 to 100 nM; that for `CC(C)(O)Cn1nc(C(=O)N[C@H]2CC3(C2)C[C@H](c2n[nH]c(=O)c4ccccc42)C3)c2ccc(Br)cc21` (some centres unmarked) [Example 152, 6-bromo-1-(2-hydroxy-2-methylpropyl)-N-((αR)-6-(4-oxo-3,4-dihydrophthalazin-1-yl)spiro[3.3]heptan-2-yl)-1H-indazole-3-carboxamide] was 2.01 to 5 nM; that for `[H][C@]1(c2n[nH]c(=O)c3ccccc32)C[C@]2(C[C@@H](NC(=O)c3ccc(-c4cnn(C)c4)cn3)C2)C1` (stereo partly drawn) [Example 450, 5-(1-methyl-1H-pyrazol-4-yl)-N-((aR)-6-(4-oxo-3,4-dihydrophthalazin-1-yl)spiro[3.3]heptan-2-yl)picolinamide] was 15.1 to 100 nM.
For the molecule `O=C(NC1CC2(C1)CC(c1n[nH]c(=O)c3ccccc13)C2)c1cnn2cc(OCCC(F)(F)F)ccc12` (stereo not drawn) [Example 133, N-((αR)-6-(4-oxo-3,4-dihydrophthalazin-1-yl)spiro[3.3]heptan-2-yl)-6-(3,3,3-trifluoropropoxy)pyrazolo[1,5-α]pyridine-3-carboxamide], the concentration for half-maximal inhibition (IC50) was 0.2 to 2 nM.
Turning to `[H][C@]1(c2n[nH]c(=O)c3ccccc32)C[C@]2(C[C@@H](NC(=O)c3cnc4cc(-c5cn(C(C)C)nc5C(F)(F)F)ccn34)C2)C1` (stereo partly drawn) [Example 444, 7-(1-isopropyl-3-(trifluoromethyl)-1H-pyrazol-4-yl)-N-((aR)-6-(4-oxo-3,4-dihydrophthalazin-1-yl)spiro[3.3]heptan-2-yl)imidazo[1,2-a]pyridine-3-carboxamide], the concentration for half-maximal inhibition (IC50) was 2.01 to 5 nM.
Next, `O=C(NC1CC2(C1)CC(c1n[nH]c(=O)c3ccccc13)C2)c1noc2ccccc12` [Example 71, N-((aR)-6-(4-oxo-3,4-dihydrophthalazin-1-yl)spiro[3.3]heptan-2-yl)benzo[d]isoxazole-3-carboxamide]: 5.1 to 15 nM; `[H][C@]1(c2n[nH]c(=O)c3ccccc32)C[C@]2(C[C@@H](NC(=O)c3cnc4ccc(F)c(C)n34)C2)C1` (stereo partly drawn) [Example 407, 6-fluoro-5-methyl-N-((aR)-6-(4-oxo-3,4-dihydrophthalazin-1-yl)spiro[3.3]heptan-2-yl)imidazo[1,2-a]pyridine-3-carboxamide]: 15.1 to 100 nM; `O=C(Cc1ccc2ccccc2c1)NC1CC2(C1)CC(c1n[nH]c(=O)c3ccccc13)C2` (centres unmarked) [Example 4, 2-(naphthalen-2-yl)-N-[6-(4-oxo-3,4-dihydrophthalazin-1-yl)spiro[3.3]heptan-2-yl]acetamide]: 100 to 2100 nM.
Turning to `[H][C@]1(c2n[nH]c(=O)c3ccccc32)C[C@]2(C[C@@H](NC(=O)c3cnc4c(C#N)cccn34)C2)C1` (stereo partly drawn) [Example 380, 8-cyano-N-((aR)-6-(4-oxo-3,4-dihydrophthalazin-1-yl)spiro[3.3]heptan-2-yl)imidazo[1,2-a]pyridine-3-carboxamide], the IC50 was in the range of 5.1 to 15 nM.
Take `[H][C@]1(c2n[nH]c(=O)c3ccccc32)C[C@]2(C[C@@H](NC(=O)c3cnn4cc(COCC=C)ccc34)C2)C1` (stereo partly drawn) [Example 212, 6-((allyloxy)methyl)-N-((aR)-6-(4-oxo-3,4-dihydrophthalazin-1-yl)spiro[3.3]heptan-2-yl)pyrazolo[1,5-a]pyridine-3-carboxamide]: the IC50 fell in the range of 0.2 to 2 nM.
